Data taken from patent US8628762B2, “T-helper cell type 17 lineage-specific adjuvants, compositions and methods” (Icahn School of Medicine at Mount Sinai, priority 2008, dated 2014).
“Also recorded” adds a separate entry of the source.

Columns and labels:
A20 cells = test: Inhibition of anti-Fas induced apoptosis, Annexin-V/7-AAD flow cytometry; format: cell-based; details: anti-Fas (anti-CD95), four hours, Annexin V/7AAD staining
[1] = system: intestinal epithelial cells; test: TUNEL staining of colon sections of C. rodentium infected mice; format: in vivo, C3H/HeOuJ mice; details: 20 mg/kg intraperitoneally on days 0, 1, 2, 3, and 5, colons day 6
Description: Colons of C3H/HeOuJ mice were harvested on day 6 and flushed with PBS. Tissues were fresh-frozen in O.C.T. Compound (Sakura Finetek, Zoeterwoude, The Netherlands) and stored at −80° C. Sections of 6 μm were cut and fixed with either 4% paraformaldehyde or ice-cold acetone for 1 h, dried, and stored at −20° C. TUNEL staining was performed using the In Situ Cell Death Detection Kit, TMR Red (Roche) according to manufacturer's instructions. For immunostaining, sections were blocked and incubated with primary antibodies in a humidified atmosphere for 1 hour at room temperature. After washing, conjugated secondary antibodies were added for 35 minutes. The slides were then washed and mounted with Fluoromount-G (Southern Biotech, Birmingham, Ala.). […] Analyses were performed using 10× and 20× dry objectives on a Nikon Eclipse E-600 fluorescence microscope and Adobe® Photoshop® software (Adobe Systems, San Jose, Calif.).
(§1) WT and mutant C. rodentium were prepared by incubation with shaking at 37° C. for 8 hours in LB broth medium. After 8 hours, the bacterial density was assessed at an optical density of 600 nm and confirmed by plating of serial dilutions. […]

[2] = system: IL-17+ CD4 T-cells in the lamina propria; test: IL-17+ CD4 T-cells in lamina propria of C. rodentium infected mice (flow cytometry); format: in vivo, C57BL/6J and C3H/HeOuJ mice
Description: (§2) The small intestines and colons of C57BL/6J or C3H/HeOuJ mice were harvested at the indicated times. […] To prepare IEL/LPL, small intestines and colons were flushed with HBSS medium without calcium or magnesium (Gibco). Intestines were cut longitudinally and washed twice briefly in HBSS, 2% FBS in 6-well plates and then placed in 15 mL ice-cold HBSS, 2% FBS in 50-mL conical tubes and vortexed at maximum setting for 15-20 seconds. Tissue was removed using long forceps into a new tube with 15 mL ice-cold HBSS, 2% FBS and vortexed again twice, for a total of three washes. The tissues were then placed in 50-mL conical tubes containing 25 mL, HBSS, 5% FBS, and 1 mM DTT (Sigma-Aldrich). Tubes were incubated on a rocker at 37° C. for 20 minutes followed by vortexing extensively at maximum setting. For IEL, fractions were collected after two rounds of 20 minutes in HBSS/FBS/DTT. Tissues were then placed in fresh tubes containing 25 mL of PBS with 1.3 mM EDTA, incubated on a rocker for 60 minutes at 37° C. and vortexed. […]
as §1

[3] = system: caspase-9 and caspase-3, caspase-8 and caspase-10, and caspase-12; details: cited from earlier work
[4] = system: infection induced barrier function; details: cited from earlier work
[5] = system: IL-17+ CD4 T-cells in lamina propria; test: DSS-induced damage of the intestinal epithelium, IL-17+ CD4 T-cells in lamina propria lymphocytes; format: in vivo, C57BL/6 mice; details: DSS in water for seven days, sacrificed on day 9, small intestines and colons
Description: as §2, §1

Row | Compound | Fas-induced apoptosis (A20 cells) | numbers of TUNEL+ cells [1] | number of IL-17+ CD4 T-cells ([2]; C. rodentium infected C57BL/6J mice) | number of IL-17+ CD4 T-cells ([2]; both strains of C. rodentium infected mice) | prevention of apoptosis by pathway ([3]; caspase-9 and caspase-3, caspase-8 and caspase-10, and caspase-12 pathways) | prevention of apoptosis compared with other caspase inhibitors [3] | toxicity to cells [3] | effect on infection induced barrier function [4] | IL-17+ CD4 T-cells [5]
1 | CC(C)[C@H](NC(=O)c1ccc2ccccc2n1)C(=O)N[C@@H](CC(=O)O)C(=O)COc1c(F)cccc1F [Q-VD-OPH] | protected from undergoing Fas-induced apoptosis; also recorded: inhibits apoptosis | decreased numbers of TUNEL^+ cells | levels similar to those found in uninfected mice | profoundly diminished the number of IL-17^+ CD4 T-cells | equally effective in preventing apoptosis mediated by the three major apoptotic pathways | significantly more effective in preventing apoptosis than ZVAD-fmk and Boc-D-fmk | not toxic to cells even at extremely high concentrations | has no effects on infection induced barrier function | 
2 | dextran sulfate sodium [dextran sulfate sodium (DSS)] |  |  |  |  |  |  |  |  | did not increase IL-17^+ CD4 T-cells over uninfected controls
